Drawing on US9718790B2, “Triazine derivative and pharmaceutical composition having an analgesic activity comprising the same” (SHIONOGI & CO., LTD., priority 2010, dated 2017), this text covers IC50 for 42 compounds.

pIC50: −log10 of the molar value.

The target of the first assay is human P2X3 receptor (Homo sapiens (Human), UniProt P56373). In words: Evaluation of human P2X3 receptor inhibitory activity (Fluo-3 calcium fluorescence, FDSS 3000, ATP stimulation).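 Further: stimulus was 50 nM ATP with fluorescence followed for 3 min, and the response per well was peak post-ATP fluorescence divided by the reading at measurement start.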 The format is cell-based. Particulars: C6BU-1 cells stably expressing human P2X3 receptor.
Sequence of human P2X3 receptor (P56373 whole entry): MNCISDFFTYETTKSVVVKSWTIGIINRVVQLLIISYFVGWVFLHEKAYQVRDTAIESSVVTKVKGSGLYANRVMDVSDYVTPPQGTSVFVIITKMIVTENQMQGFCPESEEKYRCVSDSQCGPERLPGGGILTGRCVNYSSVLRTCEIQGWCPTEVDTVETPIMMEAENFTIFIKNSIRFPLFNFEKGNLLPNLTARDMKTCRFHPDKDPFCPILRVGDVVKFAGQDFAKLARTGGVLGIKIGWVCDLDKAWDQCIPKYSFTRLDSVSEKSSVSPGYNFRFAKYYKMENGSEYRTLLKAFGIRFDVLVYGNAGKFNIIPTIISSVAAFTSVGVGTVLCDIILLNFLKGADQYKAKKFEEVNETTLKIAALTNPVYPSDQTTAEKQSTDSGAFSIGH
`COC(=O)[C@H](C)Cn1c(=O)[nH]/c(=N\c2ccc(OC(C)C)c(C)c2)n(Cc2ccc(Cl)cc2)c1=O` [Compound I-0589]: the negative-log IC50 (pIC50) was 8.22.
The same measure, in the same setting: the same measure for `CCn1c(=O)[nH]/c(=N\c2ccc(Oc3cccc(NC(C)=O)c3)cc2)n(Cc2ccc(Cl)cc2)c1=O` [Compound I-2139]: 7.66.
Same read-out and setting: the same measure for `CCc1nc2ccc(/N=c3\[nH]c(=O)n(C[C@H](C)C(=O)OC)c(=O)n3Cc3ccc(Cl)cc3)cc2o1` [Compound I-1326]: 6.66.
Same read-out and setting: the same measure for `COC(=O)CCCn1c(=O)[nH]/c(=N\c2ccc(Oc3ccnc(C)c3)cc2)n(Cc2ccc(Cl)cc2)c1=O` [Compound I-1396]: 8.40; for `COC(=O)[C@H](C)[C@H](C)n1c(=O)[nH]/c(=N\c2ccc3oc(C)cc3c2)n(Cc2ccc(Cl)cc2)c1=O` [Compound I-1323]: 7.48; for `Cn1c(=O)[nH]/c(=N\c2ccc(Oc3ccnc(C(=O)O)c3)cc2)n(Cc2ccc(Cl)cc2)c1=O` [Compound I-2099]: 8.10.
`CCn1c(=O)[nH]/c(=N\c2ccc(Oc3cc(C(=O)O)ncn3)cc2)n(Cc2ccc(Cl)cc2)c1=O` [Compound I-2209]: the pIC50 was 8.10.
Same read-out and setting: the same measure for `COC(=O)[C@@H](C)Cn1c(=O)[nH]/c(=N\c2ccc(Oc3cccnc3C)cc2)n(Cc2ccc(C)cc2)c1=O` [Compound I-1208]: 7.68; for `CCOc1cc(F)c(/N=c2\[nH]c(=O)n(CCC(=O)O)c(=O)n2Cc2ccc(C)cc2)c(F)c1` [Compound I-2053]: 6.02; for `Cc1ccc(Cn2c(=O)n(C[C@H](C)C(=O)O)c(=O)[nH]/c2=N\c2ccc(OC3COC3)cc2)cc1` [Compound I-1221]: 6.93.
On the same count and under the same terms, the same measure for `CCn1c(=O)[nH]/c(=N\c2ccc(Oc3ccsc3C(=O)OC)cc2)n(Cc2ccc(Cl)cc2)c1=O` [Compound I-2037]: 6.47; for `CC(C)NC(=O)c1ccc(/N=c2\[nH]c(=O)n(C[C@H](C)C(=O)O)c(=O)n2Cc2ccc(Cl)cc2)cc1Cl` [Compound I-1414]: 6.01; for `CCc1ccc(/N=c2\[nH]c(=O)n(C[C@H](C)C(=O)OC)c(=O)n2Cc2ccc(Cl)cc2)cc1C` [Compound I-0815]: 6.72.
On the same count and under the same terms, the same measure for `CCOC(=O)CCn1c(=O)[nH]/c(=N\c2ccc(OC(C)C)c(Cl)c2)n(CC2CCC3(CC2)CC3)c1=O` [Compound I-1449]: 8.40; for `CCOC(=O)C(CNc1ccc(OC(C)C)c(C)c1)Cn1c(=O)[nH]/c(=N\c2ccc(OC(C)C)c(C)c2)n(Cc2ccc(Cl)cc2)c1=O` (stereo not drawn) [Compound I-0778]: 7.08.
On to `Cc1ccc(Cn2c(=O)n(CCC(=O)O)c(=O)[nH]/c2=N\c2ccc3c(ccc(=O)n3C)c2)cc1` [Compound I-2128], for which the pIC50 was 6.54.
On the same count and under the same terms, the same measure for `COC(=O)[C@@H](C)Cn1c(=O)[nH]/c(=N\c2ccc3nc(C)c(C)nc3c2)n(Cc2ccc(Cl)cc2)c1=O` [Compound I-1320]: 6.44.
The same measure, in the same setting: the same measure for `C[C@@H](C(=O)O)[C@H](C)n1c(=O)[nH]/c(=N\c2ccc(N3CCCCC3)cc2)n(Cc2ccc(Cl)cc2)c1=O` [Compound I-1393]: 7.46; for `CCn1c(=O)[nH]/c(=N\c2ccc(OC3CNC=C(C(=O)OC)C3)cc2)n(Cc2ccc(Cl)cc2)c1=O` (stereo not drawn) [Compound I-2138]: 6.77; for `CC(C)Oc1ccc(/N=c2\[nH]c(=O)n(Cc3cccn(C)c3=O)c(=O)n2Cc2ccc(Cl)cc2)cc1F` [Compound I-0689]: 8.30.
The same measure, in the same setting: the same measure for `CCn1c(=O)[nH]/c(=N\c2ccc(Oc3cc(C(=O)O)n[nH]3)cc2)n(Cc2ccc(Cl)cc2)c1=O` [Compound I-2194]: 7.28; for `O=c1[nH]/c(=N\c2ccc(OCC3CC3)cc2)n(Cc2ccc(Cl)cc2)c(=O)n1CCCO` [Compound I-1917]: 7.64.

Staying with this assay, now noted: C6BU-1 cells stably expressing human P2X3 receptor, Fluo-3 fluorescence, FDSS 3000.
As for `CCC(CC)Oc1ccc(/N=c2\[nH]c(=O)n(C[C@H](C)C(=O)OC)c(=O)n2Cc2ccc(C)cc2)cc1` [Compound I-1048], the pIC50 was 7.42.
Same read-out and setting: the same measure for `CCOc1ccc(/N=c2\[nH]c(=O)n(C[C@H]3COC(C)(C)O3)c(=O)n2Cc2ccc(Cl)cc2)cc1Cl` [Compound I-1887]: 8.52.
Regarding `COC(=O)[C@@H](C)Cn1c(=O)[nH]/c(=N\c2ccc(OCC3CC3)c(Cl)c2)n(Cc2ccc(C)cc2)c1=O` [Compound I-0958], the pIC50 is 7.52.
Regarding `COC(=O)CN1CCC(Cn2c(=O)[nH]/c(=N\c3ccc(OC(C)C)c(C)c3)n(Cc3ccc(Cl)cc3)c2=O)CC1` [Compound I-1638], the pIC50 is 7.89.
Same read-out and setting: the same measure for `CCc1oc2ccc(/N=c3\[nH]c(=O)n(CCNC(C)=O)c(=O)n3Cc3ccc(Cl)cc3)cc2c1C` [Compound I-1566]: 8.10; for `Cc1ccc(Cn2c(=O)n(CCC(=O)O)c(=O)[nH]/c2=N\c2ccc3nc(C(C)C)sc3c2)cc1` [Compound I-1563]: 7.51.
On the same count and under the same terms, the same measure for `Cc1ccc(Cn2c(=O)n(C[C@H](C)C(=O)O)c(=O)[nH]/c2=N\c2ccc(C3=CCCCC3)cc2)cc1` [Compound I-1111]: 6.79; for `CCOc1ccc(/N=c2\[nH]c(=O)n([C@@H](C)[C@@H](C)C(=O)O)c(=O)n2Cc2ccc(Cl)cc2)cc1Cl` [Compound I-0922]: 7.54.
Take `CC(C)Cn1c(=O)oc2cc(Nc3nc(=O)n(C(C)C)c(=O)n3Cc3ccc(Cl)cc3)ccc21` [Compound I-0268]: the pIC50 is 6.06.
Same read-out and setting: the same measure for `C=Cc1ccc(Cn2c(=O)n(C[C@H](C)C(=O)OC)c(=O)[nH]/c2=N\c2ccc(OC(C)C)cc2)cc1` [Compound I-1131]: 6.98.
Turning to `C=Cc1cc(/N=c2\[nH]c(=O)n(C[C@H](C)C(=O)O)c(=O)n2Cc2ccc(C)cc2)ccc1OC(C)C` [Compound I-0910, (S)-1-(4-methylbenzyl)-6-(3-vinyl-4-isopropoxyphenylimino)-3-(2-hydroxycarbonylpropyl)-1,3,5-triazinane-2,4-dion], the pIC50 is 8.10.
In the case of `COC(=O)CCn1c(=O)[nH]/c(=N\c2cn(C)nc2C(=O)NC(C)C)n(Cc2ccc(C)cc2)c1=O` [Compound I-1804], the pIC50 was 6.79.

The assay is the same for the next values; noted with them: human P2X3 receptor, Test Example 1.
On to `CCn1c(=O)[nH]/c(=N\c2ccc(Oc3cnc(C#N)cn3)cc2)n(Cc2ccc(Cl)cc2)c1=O` [Compound I-2427], for which the pIC50 was 8.70.
On the same count and under the same terms, the same measure for `Cc1ccc(Cn2c(=O)n(CCC(N)=O)c(=O)[nH]/c2=N\c2ccc(Oc3ncccn3)cc2)cc1` [Compound I-2566]: 7.77; for `O=C(O)c1cc(Oc2ccc(/N=c3\[nH]c(=O)n(C4CC4)c(=O)n3Cc3ccc(Cl)cc3)cc2)ccn1` [Compound I-2330]: 8.15; for `CC(=O)Nc1cc(Oc2ccc(/N=c3\[nH]c(=O)n(C)c(=O)n3Cc3ccc(Cl)cc3)cc2)ccn1` [Compound I-2431]: 7.74.
On the same count and under the same terms, the same measure for `CC[C@@H](Cn1c(=O)[nH]/c(=N\c2ccc(OC(C)C)c(C)c2)n(Cc2ccc(Cl)cc2)c1=O)C(=O)OC` [Compound I-0887]: 7.64; for `O=c1[nH]/c(=N\c2ccc(Oc3ccon3)c(F)c2)n(Cc2ccc(Cl)cc2)c(=O)n1C[C@H](O)CO` [Compound I-2440]: 8.30; for `Cc1cnc(Oc2ccc(/N=c3\[nH]c(=O)n(CCO)c(=O)n3Cc3ccc(Cl)cc3)cc2)s1` [Compound I-2457]: 7.89.
Regarding `C=C(C)c1ccc(/N=c2\[nH]c(=O)n(C[C@H](C)C(=O)OC)c(=O)n2Cc2ccc(C)cc2)cc1Cl` [Compound I-1491], the pIC50 is 6.55.

One may read the pIC50 as −log10 of the IC50, conventionally taken in molar units.
